Data as given in the NIST ThermoML archive (doi:10.1021/je900550v).

Conditions: 101.33 kPa, Liquid; for speed of sound: Sing-around technique in a fixed-path interferometer; for mass density: Vibrating tube method

CC(=O)[O-].C[NH2+]CCO [N-methyl-2-hydroxyethylammonium acetate]
Conditions	mass density [kg/m3]	speed of sound [m/s]	viscosity [mPa·s]
308.15 K	1094.83	1769.3	–
308.4 K	1094.68	1768.7	–
308.65 K	1094.52	1768	–
308.9 K	1094.37	1767.4	–
309.15 K	1094.22	1766.8	–
309.4 K	1094.07	1766.1	–
309.65 K	1093.92	1765.5	–
309.9 K	1093.77	1764.8	–
310.15 K	1093.62	1764.2	–
310.4 K	1093.47	1763.6	–
310.65 K	1093.31	1762.9	–
310.91 K	1093.16	1762.3	–
311.16 K	1093.01	1761.7	–
311.4 K	1092.85	1761	–
311.65 K	1092.7	1760.4	–
311.91 K	1092.55	1759.7	–
312.16 K	1092.4	1759.1	–
312.41 K	1092.24	1758.5	–
312.66 K	1092.09	1757.8	–
312.91 K	1091.94	1757.2	–
313.15 K	–	–	46.16
313.16 K	1091.78	1756.5	–
313.4 K	1091.63	1755.9	–
313.66 K	1091.48	1755.2	–
313.9 K	1091.32	1754.6	–
314.15 K	1091.17	1753.9	–
314.4 K	1091.02	1753.3	–
314.65 K	1090.87	1752.6	–
314.9 K	1090.71	1752	–
315.15 K	1090.56	1751.3	–
315.41 K	1090.41	1750.7	–
315.65 K	1090.26	1750	–
315.91 K	1090.1	1749.4	–
316.16 K	1089.95	1748.7	–
316.41 K	1089.79	1748.1	–
316.66 K	1089.64	1747.4	–
316.91 K	1089.49	1746.8	–
317.16 K	1089.33	1746.1	–
317.4 K	1089.18	1745.5	–
317.66 K	1089.02	1744.8	–
317.91 K	1088.87	1744.2	–
318.15 K	–	–	37.28
318.16 K	1088.72	1743.5	–
318.41 K	1088.56	1742.8	–
318.65 K	1088.41	1742.2	–
318.9 K	1088.26	1741.5	–
319.16 K	1088.1	1740.9	–
319.41 K	1087.94	1740.2	–
319.65 K	1087.79	1739.6	–
319.91 K	1087.64	1738.9	–
320.16 K	1087.48	1738.2	–
320.41 K	1087.33	1737.6	–
320.65 K	1087.17	1736.9	–
320.91 K	1087.02	1736.3	–
321.15 K	1086.86	1735.6	–
321.41 K	1086.71	1735	–
321.66 K	1086.55	1734.3	–
321.9 K	1086.4	1733.6	–
322.15 K	1086.24	1733	–
322.41 K	1086.08	1732.3	–
322.65 K	1085.93	1731.7	–
322.91 K	1085.77	1731	–
323.15 K	–	–	29.06
323.16 K	1085.62	1730.3	–
323.41 K	1085.46	1729.7	–
323.65 K	1085.31	1729	–
323.91 K	1085.15	1728.3	–
324.16 K	1085	1727.7	–
324.41 K	1084.84	1727	–
324.65 K	1084.68	1726.4	–
324.9 K	1084.53	1725.7	–
325.16 K	1084.37	1725	–
325.4 K	1084.22	1724.4	–
325.66 K	1084.06	1723.7	–
325.9 K	1083.9	1723.1	–
326.16 K	1083.75	1722.4	–
326.41 K	1083.59	1721.7	–
326.66 K	1083.43	1721.1	–
326.9 K	1083.28	1720.4	–
327.16 K	1083.12	1719.7	–
327.4 K	1082.97	1719.1	–
327.66 K	1082.81	1718.4	–
327.9 K	1082.65	1717.7	–
328.15 K	1082.49	1717.1	–
328.41 K	1082.34	1716.4	–
328.66 K	1082.18	1715.8	–
328.9 K	1082.03	1715.1	–
329.16 K	1081.87	1714.4	–
329.4 K	1081.71	1713.8	–
329.65 K	1081.55	1713.1	–
329.9 K	1081.4	1712.5	–
330.16 K	1081.24	1711.8	–
330.41 K	1081.08	1711.1	–
330.66 K	1080.92	1710.5	–
330.91 K	1080.77	1709.8	–
331.16 K	1080.61	1709.1	–
331.41 K	1080.45	1708.5	–
331.66 K	1080.29	1707.8	–
331.91 K	1080.13	1707.1	–
332.16 K	1079.97	1706.5	–
332.41 K	1079.82	1705.8	–
332.66 K	1079.66	1705.1	–
332.91 K	1079.5	1704.5	–
333.16 K	1079.34	1703.8	–
333.41 K	1079.19	1703.1	–
333.66 K	1079.03	1702.5	–
333.91 K	1078.87	1701.8	–
334.16 K	1078.71	1701.2	–
334.41 K	1078.55	1700.5	–
334.66 K	1078.39	1699.8	–
334.91 K	1078.23	1699.2	–
335.16 K	1078.08	1698.5	–
335.41 K	1077.92	1697.9	–
335.66 K	1077.76	1697.2	–
335.91 K	1077.6	1696.6	–
336.16 K	1077.44	1696	–
336.41 K	1077.28	1695.3	–
336.66 K	1077.12	1694.7	–
336.9 K	1076.96	1694	–
337.16 K	1076.8	1693.4	–
337.4 K	1076.63	1692.8	–
337.66 K	1076.47	1692.2	–
337.9 K	1076.32	1691.7	–
338.15 K	1076.16	1691.3	–
